Values joined by “and” are separate entries in the source; they are usually repeats but may differ in a detail not shown here. Identical values can stand only once.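 Tested at 5 concentrations; 48 h exposure; 96-well plates; endpoints linearly interpolated, else capped at highest concentration. GI50: concentration for 50% inhibition of growth. The concentration for full growth arrest is given as TGI.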
Key:
Test in all cases: NCI anticancer screen, dose series, 48 h
A498 renal = system: A498 renal
CCRF-CEM leukemia = system: CCRF-CEM leukemia
DU-145 prostate = system: DU-145 prostate
HCT-116 colon = system: HCT-116 colon
HL-60(TB) leukemia = system: HL-60(TB) leukemia
MALME-3M melanoma = system: MALME-3M melanoma
SNB-19 CNS = system: SNB-19 CNS
SR leukemia = system: SR leukemia
U251 CNS = system: U251 CNS
SK-MEL-2 melanoma = system: SK-MEL-2 melanoma

| SMILES | GI50 (A498 renal) [µM] | TGI (A498 renal) | GI50 (CCRF-CEM leukemia) [µM] | TGI (CCRF-CEM leukemia) | GI50 (DU-145 prostate) [µM] | TGI (DU-145 prostate) [µM] | GI50 (HCT-116 colon) [µM] | TGI (HCT-116 colon) | GI50 (HL-60(TB) leukemia) [µM] | TGI (HL-60(TB) leukemia) [µM] | GI50 (MALME-3M melanoma) [µM] | TGI (MALME-3M melanoma) [µM] | GI50 (SNB-19 CNS) | TGI (SNB-19 CNS) [µM] | GI50 (SR leukemia) [µM] | GI50 (U251 CNS) [µM] | TGI (U251 CNS) | GI50 (SK-MEL-2 melanoma) [µM] | TGI (SK-MEL-2 melanoma) | TGI (SR leukemia) |
| --- | --- | --- | --- | --- | --- | --- | --- | --- | --- | --- | --- | --- | --- | --- | --- | --- | --- | --- | --- | --- |
| COc1cc(C2C=C(c3cccc(NC(C)=O)c3)Nc3ncnn32)cc(OC)c1OC (stereo not given) | 0.242 | 4.67 µM | 0.72 | 4.16 µM | 0.44 | 7.34 | 0.424 | > 70.2 µM | 0.443 | 2.28 | 0.389 | > 100 | 1.21 µM | > 100 | 0.437 | 0.395 | > 100 µM | – | – | – |
| CCOC(=O)c1ccc(NC(=O)N2CC(C)OC(C)C2)cc1 (stereo not given) | > 100 | > 100 µM | > 100 | > 100 µM | > 100 | > 100 | > 100 | > 100 µM | > 100 | > 100 | > 100 | > 100 | > 100 µM | > 100 | > 100 | > 100 | > 100 µM | > 100 | > 100 µM | > 100 µM |
| CNC(=O)c1cc(OC2CCC(NC(=O)Nc3ccc(Cl)c(C(F)(F)F)c3)CC2)ccn1 (stereo not given) | 8.14 | 22.1 µM | 4.41 | > 100 µM | 12.8 | 32.5 | 4.35 | 16.6 µM | 11.7 | 50.2 | 9.64 | 34.3 | 7.91 µM | 32.2 | 4.42 | 6.81 | 23.4 µM | 15.8 | 38.3 µM | 32.7 µM |
| COc1ccc(-c2nn3ncccc3c2-c2ccnc(Nc3ccc(Cl)c(C(F)(F)F)c3)n2)cc1 | 6.52 | > 25 µM | 8.37 | > 25 µM | 14 | > 25 | 8.01 | > 25 µM | 11.9 | > 25 | 10.8 | > 25 | 16 µM | > 25 | 17.6 | 12.4 | > 25 µM | 11.6 | > 25 µM | > 25 µM |
| C=C1C(=O)O[C@H]2[C@H]1CC/C(COC(=O)c1cc3cc(F)ccc3[nH]1)=C\CC[C@@]1(C)O[C@@H]21 | 3.35 | 8.96 µM | 0.919 | 6.52 µM | 1.67 | 3.19 | 1.5 | 2.96 µM | 2.07 | 9.27 | 1.67 | 3.53 | 5.04 µM | 21 | 2.03 | 1.82 | 3.57 µM | 1.95 | 4.27 µM | 17.6 µM |
| ClCc1cccc(Cn2cnc3c(Cl)ncnc32)c1 | 17.3 | 31.9 µM | 1.91 | 3.85 µM | 11.2 | 24 | 1.48 | 3.07 µM | – | – | – | – | 2.66 µM | 12.5 | – | 1.8 | 3.48 µM | 22.1 | 51.1 µM | – |
| COc1ccc(Cl)cc1Nc1nc(C(F)(F)F)ccc1C(=O)N/N=C/c1c(Cl)cccc1Cl | 12.3 | > 100 µM | 1.04 | 6.17 µM | 5.91 | > 100 | 3.3 | > 100 µM | 4.87 | 41.6 | 3.46 | 54.7 | 11.4 µM | > 100 | – | 4.97 | > 100 µM | 5.62 | > 100 µM | – |
| CC(=O)n1c(COS(C)(=O)=O)nc2ccccc21 | – | > 100 µM | – | – | – | > 100 | – | > 100 µM | – | – | – | > 100 | – | > 100 | – | – | > 100 µM | – | > 100 µM | – |
| COC(=O)N[C@H]1CCc2c(Br)c(OC)c(OC)c(OC)c2-c2ccc(SC)c(=O)cc21 | < 0.01 | < 0.01 µM | < 0.01 | 24.9 µM | < 0.01 | 0.145 | < 0.01 | 11.5 µM | < 0.01 | < 0.01 | 0.0148 | 30.5 | < 0.01 µM | > 49.7 | < 0.01 | < 0.01 | 15 µM | – | – | 22.4 µM |
| COc1ccc2c(c1)/C(=C\c1c(C)nc3sc(C)cn13)C(=O)N2C | – | – | 5.46 | > 100 µM | 11 | > 100 | 6 | > 100 µM | – | – | 7.09 | 73.3 | 4.08 µM | > 100 | 0.345 | 3.69 | 31.2 µM | 9.57 | > 100 µM | > 100 µM |
| COc1cc2c3c(n(C)c(=O)c2cc1OC)-c1cc2c(cc1/C3=C\CCCCCN)OCO2 | 10.6 | 39.4 µM | 0.0121 | 0.0641 µM | 1.88 | 23.1 | – | – | 2.92 | 21.9 | 8.38 | 37.8 | 2.49 µM | 76.5 | < 0.01 | 1.56 | 16.7 µM | 31 | > 100 µM | – |
| N#CCC1COc2ccccc2O1 (stereo not given) | – | – | – | > 10 µM | – | > 10 | – | > 10 µM | – | > 10 | – | > 10 | – | > 10 | – | – | > 10 µM | – | – | > 10 µM |
| CN1CCN(CN2C(=O)C3C4C=CC(C3C2=O)C2C3C(=O)N(CN5CCN(C)CC5)C(=O)C3C42)CC1 (stereo not given) | – | > 100 µM and 97.9 µM | – | 65.3 µM and 42 µM and 48.3 µM | – | 77.2 | – | 33.4 µM and 36.4 µM and 27.3 µM | – | – | – | 34.2 | 31.7 µM and 53.2 µM and 76.9 µM | > 100 | – | – | 38.3 µM and 37.2 µM and 33 µM | – | 40 µM and 35.6 µM and 30 µM | 41.6 µM and 36.2 µM |
| COc1cc(-c2nn(-c3ccc(NC(=O)c4ccc(Cl)c(Cl)c4)cc3)cc2-c2ccncc2)ccc1Cl | 5.25 | > 100 µM | 4.56 | > 100 µM | > 100 | > 100 | 4.6 | > 100 µM | 8.03 | > 100 | – | – | 26.7 µM | > 100 | 18.7 | 5.7 | > 100 µM | 5.74 | > 100 µM | > 100 µM |
| O=C(Oc1ccc(Cl)cc1Cl)c1ccccc1Nc1ccnc(C(F)(F)F)c1 | 21.5 | 37.3 µM | 3.54 | > 100 µM | 15.7 | 30.6 | – | – | 6.63 | > 100 | – | – | – | – | 0.772 | – | – | 20.5 | > 100 µM | > 100 µM |

From PubChem BioAssay (NCI)
